In article PMC4728560 (Scientific Reports, 2016):

Key:
Bcl-xL-Y101K = assay: Heterocomplex formation with Bcl-xL-Y101K mutant; assay type: binding, human
Method: When not specified, proteins tested for binding experiments were mixed at 100 μM, dialyzed against 10 mM CHES pH 9, 50 mM NaCl, 1 mM DTT or TCEP, depending on the analysis, and heated overnight at 30 °C.
For binding experiments, 100 to 200PL of protein mixture were loaded on a size exclusion chromatography (S200, GE Healthcare) column, while elution profiles were measured by UV absorption at 280 nm.
SEC-MALS experiments were performed on a multi-angle light scattering detector (miniDAWN TREOS, Wyatt Technologies) coupled in-line with SEC and an interferometric refractometer (Optilab T-rEX, Wyatt Technologies). See Supplementary Information for full details.
Prior to any mass spectrometry experiment, protein buffer was exchanged twice against a 50 mM ammonium acetate (NH4Ac) solution at pH 9.0 using microcentrifuge gel filtration columns (Zeba 0.5 ml, Thermo Scientific, Rockford, IL). Protein concentration was determined spectrophotometrically. […]
Gel filtration. For binding experiments, 100 to 200PL of protein mixture were loaded on a size exclusion chromatography (S200, GE Healthcare) column, while elution profiles were measured by UV absorption at 280nm. […]
For MALS experiments, the molar mass was determined by construction of Debye plot using Zimm formalism (plot of K*c/R(T) as a function of sin2(T/2)) at 0.5 and 1sec data intervals, for Superdex S200 column. […]

Bcl-xL = assay: In cellulo BRET between Luciferase-fused TCTP and YFP-fused Bcl-xL; assay type: cell-based; conditions: MCF-7 cells; donor Luciferase-fused TCTP, acceptor YFP-fused Bcl-xL
From the text: See Supplementary Information for full details.
Twenty-four hours later, cells
Protein expression and purification

BRET signals with Bcl-xL (Bcl-xL): saturable BRET signals
Substance: TCTP: Translationally Controlled Tumor Protein (TCTP/tpt1), recombinant full-length
complex formation with Bcl-xL-Y101K mutant (Bcl-xL-Y101K): unable to form heterocomplexes
